Data: patent US20220064167A1, “IMIDAZO-PYRAZOLE CARBOXAMIDE DERIVATIVES AS ANTICANCER AGENTS AND THE SYNTHESIS THEREOF” (AVIDIN KFT., priority 2018, published 2022)

Key:
[1] = tested on: human breast adenocarcinoma cell line, MCF-7; experiment: resazurin viability assay, 72 h (Table 1); assay type: cell-based; details: MCF7, 72h incubation, 156 nM-100 μM
Excerpt: (§1) In our experiments three different cell lines were used. Cells were purchased from the American Type Culture Collection (ATCC, Manassas, Va., USA). The human breast adenocarcinoma cell line, MCF-7 cells were maintained in Dulbecco's Modified Eagle Medium/Nutrient Mixture F-12 (DMEM/F12) 10% fetal calf serum (FCS, Gibco) and mouse mammary carcinoma 4T1 and human promyelocytic leukemia, HL-60 cells were maintained in Roswell Park Memorial Institute 1640 medium (RPMI-1640) 10% FCS. Media were supplemented with 2 mM GlutaMAX, and 100 U/mL penicillin, 100 μg/mL streptomycin (Life Technologies, Carlsbad, Calif., USA). Cell cultures were maintained at 37° C. in a humidified incubator in an atmosphere of 5% CO2 (Sanyo, Japan).
(§2) For viability assays cells were seeded in 96 well plates (MCF7 and 4T1: 6000, HL60: 120.000 cells/well) and incubated overnight. Compounds were dissolved in dimethyl sulfoxide (DMSO). Cells were treated with an increasing concentration of compounds having the general formula (I.) (156 nM-100 μM). Cell viability was determined after 72h incubation. Resazurin reagent (Sigma-Aldrich) was dissolved in PBS (pH 7.4) at 0.15 mg/ml concentration, sterile filtered (0.22 μm, Merck Millipore) and aliquoted at −20° C. Resazurin reagent (Sigma-Aldrich) was added at a final concentration of 25 μg/ml. After 2 hours incubation at 37° C. 5% CO2 fluorescence (530 nm excitation/580 nm emission) was recorded on a multimode microplate reader (Cytofluor4000, PerSeptive Biosytems). Viability was calculated with relation to untreated control cells and blank wells containing media without cells. IC50 values (50% inhibiting concentration) were calculated by GraphPad Prism® 5 (La Jolla, Calif., USA).

[2] = tested on: human promyelocytic leukemia, HL-60 cells; experiment: resazurin viability assay, 72 h (Table 1); assay type: cell-based; details: 72h incubation, 156 nM-100 μM
Excerpt: as §1, §2

[3] = tested on: mouse mammary carcinoma 4T1; experiment: resazurin viability assay, 72 h (Table 1); assay type: cell-based; details: 72h incubation, 156 nM-100 μM
Excerpt: as §1, §2

IC50 [1]	IC50 [2]	IC50 [3]	melting point	Compound
17.8 µM	1.11 µM	24.7 µM	187 to 188 °C	COc1ccc(NC(=O)c2cnn3c(NC(C)(C)CC(C)(C)C)c(C(C)(C)C)[nH]c23)cc1 [Example 43, 2-(Tert-butyl)-N-(4-methoxyphenyl)-3-((2,4,4-trimethylpentan-2-yl)amino)-1H-imidazo[1,2-b]pyrazole-7-carboxamide]
> 50 µM	11.4 µM	35.4 µM	180 °C	CC(C)(C)CC(C)(C)Nc1c(C(C)(C)C)[nH]c2c(C(=O)Nc3cccc(C(F)(F)F)c3)cnn12 [Example 46, 2-(Tert-butyl)-N-(3-(trifluoromethyl)phenyl)-3-((2,4,4-trimethylpentan-2-yl)amino)-1H-imidazo[1,2-b]pyrazole-7-carboxamide]
29 µM	> 50 µM	> 50 µM	155 to 156 °C	CC(C)(C)CC(C)(C)Nc1c(C(C)(C)C)[nH]c2c(C(=O)Nc3ccc(C(F)(F)F)cc3)cnn12 [Example 47, 2-(Tert-butyl)-N-(4-(trifluoromethyl)phenyl)-3-((2,4,4-trimethylpentan-2-yl)amino)-1H-imidazo[1,2-b]pyrazole-7-carboxamide]
> 50 µM	2.04 µM	> 50 µM	153 to 154 °C	CC(C)(C)CC(C)(C)Nc1c(C(C)(C)C)[nH]c2c(C(=O)Nc3ccccc3F)cnn12 [Example 48, 2-(Tert-butyl)-N-(2-fluorophenyl)-3-((2,4,4-trimethylpentan-2-yl)amino)-1H-imidazo[1,2-b]pyrazole-7-carboxamide]
17.3 µM	4.47 µM	23.5 µM	159 °C	CC(C)(C)CC(C)(C)Nc1c(C(C)(C)C)[nH]c2c(C(=O)Nc3cccc(F)c3)cnn12 [Example 49, 2-(Tert-butyl)-N-(3-fluorophenyl)-3-((2,4,4-trimethylpentan-2-yl)amino)-1H-imidazo[1,2-b]pyrazole-7-carboxamide]
2.35 µM	0.183 µM	7.43 µM	188 °C	CC(C)(C)CC(C)(C)Nc1c(C(C)(C)C)[nH]c2c(C(=O)Nc3ccc(F)cc3)cnn12 [Example 50, 2-(Tert-butyl)-N-(4-fluorophenyl)-3-((2,4,4-trimethylpentan-2-yl)amino)-1H-imidazo[1,2-b]pyrazole-7-carboxamide]
> 50 µM	19.7 µM	> 50 µM	153 to 154 °C	CC(C)(C)CC(C)(C)Nc1c(C(C)(C)C)[nH]c2c(C(=O)Nc3ccc(Br)cc3)cnn12 [Example 52, N-(4-Bromophenyl)-2-(tert-butyl)-3-((2,4,4-trimethylpentan-2-yl)amino)-1H-imidazo[1,2-b]pyrazole-7-carboxamide]
9.94 µM	7.64 µM	27.1 µM	199 °C	CC(C)(C)CC(C)(C)Nc1c(C(C)(C)C)[nH]c2c(C(=O)Nc3ccc([N+](=O)[O-])cc3)cnn12 [Example 53, 2-(Tert-butyl)-N-(4-nitrophenyl)-3-((2,4,4-trimethylpentan-2-yl)amino)-1H-imidazo[1,2-b]pyrazole-7-carboxamide]
9.71 µM	1.5 µM	> 50 µM	199 °C	CC(C)(C)CC(C)(C)Nc1c(C(C)(C)C)[nH]c2c(C(=O)Nc3ccc(C#N)cc3)cnn12 [Example 54, 2-(Tert-butyl)-N-(4-cyanophenyl)-3-((2,4,4-trimethylpentan-2-yl)amino)-1H-imidazo[1,2-b]pyrazole-7-carboxamide]
> 50 µM	8.5 µM	> 50 µM	127 to 128 °C	CCOC(=O)c1ccc(NC(=O)c2cnn3c(NC(C)(C)CC(C)(C)C)c(C(C)(C)C)[nH]c23)cc1 [Example 55, Ethyl 4-(2-(tert-butyl)-3-((2,4,4-trimethylpentan-2-yl)amino)-1H-imidazo[1,2-b]pyrazole-7-carbox-amido)benzoate]
